How the values were obtained:
[1] = target: Prostaglandin E2 receptor EP4 subtype (Homo sapiens, UniProt P35408); assay: Displacement of [3H]prostaglandin E2 from full-length recombinant human EP4 receptor expressed in HEK293 cell membranes measured after 120 mins by scintillation counting method
[2] = Drug metabolism in rat hepatocytes assessed as oxidation at the pyrrolidine ring at 1 uM measured after 1 to 4 hrs by LC-MS/MS analysis; format: ADME, cell-based, Hepatocyte; details: time 1-4 hrs
Cytochrome P450 3A4 = Cytochrome P450 3A4 (Homo sapiens, UniProt P08684); assay: Inhibition of CYP3A4 in human liver microsomes using midazolam as substrate incubated for 10 mins in presence of NADPH generating system by LC-MS/MS analysis
[3] = target: Prostaglandin E2 receptor EP1 subtype (Homo sapiens, UniProt P34995); assay: Displacement of [3H]prostaglandin E2 from full-length recombinant human EP1 receptor expressed in HEK293 cell membranes measured after 60 mins by scintillation counting method
[4] = Maximum oral bioavailability in human hepatocytes based well stirred liver model at 1 uM measured after 2 to 90 mins by LC-MS/MS analysis; format: ADME, Hepatocyte; details: time 2-90 min, read-out: Fmax
[5] = Oral bioavailability in Beagle dog at 1 mg/kg administered via gavage by LC-MS/MS analysis; format: ADME, organism-based, Canis lupus familiaris; details: in vivo
Cytochrome P450 2D6 = Cytochrome P450 2D6 (Homo sapiens, UniProt P10635); assay: Inhibition of CYP2D6 in human liver microsomes using dextromethorphan as substrate incubated for 15 mins in presence of NADPH generating system by LC-MS/MS analysis; format: ADME
[6] = target: Prostaglandin D2 receptor (Homo sapiens, UniProt Q13258); assay: Displacement of [3H]PGD2 from full-length recombinant human DP1 receptor expressed in Chem-1 cell membranes measured after 120 mins by scintillation counting method
[7] = Drug metabolism in human hepatocytes assessed as oxidation at the pyrrolidine ring at 1 uM measured after 1 to 4 hrs by LC-MS/MS analysis; format: ADME, cell-based, Hepatocyte; details: time 1-4 hrs
[8] = Protein binding in pooled rat plasma assessed as unbound fraction incubated for 6 hrs by LC-MS/MS analysis based equilibrium dialysis method; format: ADME, cell-free
Thromboxane A2 receptor = Thromboxane A2 receptor (Homo sapiens, UniProt P21731); assay: Antagonist activity at recombinant full-length human TP receptor expressed in HEK293 cells assessed as inhibition of U-44069-induced response measured after 30 mins by TR-FRET assay; format: cell-based
Sequence of Thromboxane A2 receptor (P21731 whole entry): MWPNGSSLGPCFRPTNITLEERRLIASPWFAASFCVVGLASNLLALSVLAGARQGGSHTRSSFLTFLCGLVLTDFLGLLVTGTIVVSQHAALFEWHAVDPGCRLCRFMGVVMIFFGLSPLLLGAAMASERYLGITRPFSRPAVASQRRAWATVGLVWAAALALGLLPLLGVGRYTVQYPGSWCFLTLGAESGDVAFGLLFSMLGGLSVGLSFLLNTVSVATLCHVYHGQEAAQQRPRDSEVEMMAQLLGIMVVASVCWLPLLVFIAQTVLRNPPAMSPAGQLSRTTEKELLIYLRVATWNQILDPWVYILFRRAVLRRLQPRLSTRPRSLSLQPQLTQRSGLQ

Sequence of Cytochrome P450 3A4 (P08684 whole entry): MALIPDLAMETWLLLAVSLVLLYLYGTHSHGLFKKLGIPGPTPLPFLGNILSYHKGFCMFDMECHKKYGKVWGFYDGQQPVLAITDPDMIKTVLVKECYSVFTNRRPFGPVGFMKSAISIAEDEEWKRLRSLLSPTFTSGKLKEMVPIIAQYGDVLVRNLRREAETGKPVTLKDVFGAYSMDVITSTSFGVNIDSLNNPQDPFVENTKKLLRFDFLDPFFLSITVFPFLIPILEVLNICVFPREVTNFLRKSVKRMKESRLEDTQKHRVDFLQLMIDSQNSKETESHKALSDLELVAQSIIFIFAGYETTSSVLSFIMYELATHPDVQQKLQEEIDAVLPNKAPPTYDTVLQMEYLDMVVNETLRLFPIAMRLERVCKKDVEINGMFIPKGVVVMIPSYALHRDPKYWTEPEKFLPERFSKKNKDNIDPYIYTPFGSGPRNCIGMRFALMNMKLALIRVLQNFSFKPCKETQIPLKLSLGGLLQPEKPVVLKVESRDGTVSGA
Sequence of Prostaglandin D2 receptor (Q13258 whole entry): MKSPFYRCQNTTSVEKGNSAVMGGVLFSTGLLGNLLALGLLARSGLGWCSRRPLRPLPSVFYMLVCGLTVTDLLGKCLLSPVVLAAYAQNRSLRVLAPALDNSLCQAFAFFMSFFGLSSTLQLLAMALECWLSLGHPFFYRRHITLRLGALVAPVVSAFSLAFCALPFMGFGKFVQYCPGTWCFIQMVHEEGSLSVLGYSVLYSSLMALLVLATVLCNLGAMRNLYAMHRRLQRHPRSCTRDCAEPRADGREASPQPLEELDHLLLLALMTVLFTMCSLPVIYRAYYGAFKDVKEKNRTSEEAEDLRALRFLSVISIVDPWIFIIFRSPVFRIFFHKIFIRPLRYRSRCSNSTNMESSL
Sequence of Cytochrome P450 2D6 (P10635 whole entry): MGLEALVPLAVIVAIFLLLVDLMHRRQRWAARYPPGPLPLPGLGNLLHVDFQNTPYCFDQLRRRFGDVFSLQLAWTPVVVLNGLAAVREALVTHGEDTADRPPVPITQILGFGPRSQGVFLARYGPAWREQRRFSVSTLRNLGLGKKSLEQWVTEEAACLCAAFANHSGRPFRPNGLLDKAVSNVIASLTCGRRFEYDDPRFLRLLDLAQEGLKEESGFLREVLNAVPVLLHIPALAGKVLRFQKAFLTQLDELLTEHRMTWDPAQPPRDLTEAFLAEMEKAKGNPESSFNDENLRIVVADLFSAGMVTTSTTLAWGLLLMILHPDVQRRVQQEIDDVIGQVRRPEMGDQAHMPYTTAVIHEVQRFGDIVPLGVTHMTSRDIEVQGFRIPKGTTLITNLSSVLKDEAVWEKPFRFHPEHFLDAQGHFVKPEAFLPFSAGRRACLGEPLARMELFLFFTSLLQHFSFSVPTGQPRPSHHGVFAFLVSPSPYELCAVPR
Sequence of Prostaglandin E2 receptor EP1 subtype (P34995 whole entry): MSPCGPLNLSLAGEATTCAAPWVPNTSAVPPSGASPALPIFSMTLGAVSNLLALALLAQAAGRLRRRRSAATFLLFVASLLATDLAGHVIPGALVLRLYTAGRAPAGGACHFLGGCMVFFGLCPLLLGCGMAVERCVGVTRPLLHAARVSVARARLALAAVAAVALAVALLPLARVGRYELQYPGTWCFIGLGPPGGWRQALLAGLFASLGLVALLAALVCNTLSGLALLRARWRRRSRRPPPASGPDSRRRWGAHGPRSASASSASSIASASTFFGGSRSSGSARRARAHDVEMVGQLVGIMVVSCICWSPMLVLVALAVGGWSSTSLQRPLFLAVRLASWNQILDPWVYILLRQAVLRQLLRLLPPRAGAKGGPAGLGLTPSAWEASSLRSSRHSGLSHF
Sequence of Prostaglandin E2 receptor EP4 subtype (P35408 whole entry): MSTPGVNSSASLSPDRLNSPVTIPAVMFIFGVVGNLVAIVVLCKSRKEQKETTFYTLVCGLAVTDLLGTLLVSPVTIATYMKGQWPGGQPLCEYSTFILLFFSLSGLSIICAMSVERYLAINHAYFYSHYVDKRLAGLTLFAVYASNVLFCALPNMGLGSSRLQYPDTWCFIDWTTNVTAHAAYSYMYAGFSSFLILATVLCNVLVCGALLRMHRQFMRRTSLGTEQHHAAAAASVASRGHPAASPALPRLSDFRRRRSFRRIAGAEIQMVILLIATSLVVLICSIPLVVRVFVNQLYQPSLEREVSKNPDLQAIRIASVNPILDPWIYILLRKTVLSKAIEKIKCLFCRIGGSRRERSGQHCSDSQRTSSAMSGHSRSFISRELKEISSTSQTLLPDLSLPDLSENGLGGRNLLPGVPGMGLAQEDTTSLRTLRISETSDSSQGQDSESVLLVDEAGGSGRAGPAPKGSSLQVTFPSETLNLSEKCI

- IC50 [1]: > 9.4 µM
- Drug metabolism [2]: Metabolite_Detected
- IC50 (Cytochrome P450 3A4): > 20 µM
- IC50 [3]: > 10 µM
- Fh at 1 µM [4]: 66%
- bioavailability [5]: 45%
- IC50 (Cytochrome P450 2D6): > 20 µM
- IC50 [6]: > 10 µM
- Drug metabolism [7]: Metabolite_Detected
- fraction unbound at 6 h [8]: < 0.01
- IC50 (Thromboxane A2 receptor): 2.2 µM
Structure (SMILES): Cc1c(N2CCCC2)nc2ccc(Br)cc2c1C(=O)NC[C@H](CCC(=O)O)c1ccccc1Cl [BAY-6672]
